Measurements published in patent US20230089789A1, “INTESTINAL TRACT FUNCTION-IMPROVING AGENT” (CYCLOCHEM BIO CO., LTD., priority 2020, published 2023).

Key:
IgA = IgA measurement in cecal contents (Rat IgA ELISA Kit); format: in vivo, SD rats; details: 5.5% in NF diet, 8 weeks; for IgA amount of cecal contents: compared to the NF group (p<0.01), FIG. 2
Method: (§1) Fifteen 3-week-old SD rats (Japan SLC, Inc.) were acclimatized to the facility for one week and then divided into three groups of NF group (No Fiber diet), α-CD group (5.5% α-CD-containing NF diet) and LS group (5.5% LS-containing NF diet), each including five rats, and each rat was kept in one cage. In this test, the experiment was conducted in accordance with the Guidelines for Animal Experimentation of Kobe Women's University (Kobe, Japan), and approved by the animal ethics committee of the Graduate School of Science of Health and Nutrition at Kobe Women's University. The breeding environment was at 23±3° C. with a humidity of 60±10%, and cycles of 12-hour light/12-hour dark were provided. The rats were allowed to freely take diets and water and bread for eight weeks with experimental diets.
(§2) The diets were prepared in such a manner that the α-CD or LS content of dry experimental diet became 5.5%. After mixing each powder well, 100 ml of water was added, and thus mixed material was used as an experimental diet.
(§3) The rats of each group were fasted overnight eight weeks after starting breeding and then dissected under isoflurane anesthesia, and the cecum were taken out.
One hundred milligrams of cecal contents were measured and stirred after adding 1 ml of Elix water. After stirring, the resultant was centrifuged under the conditions of 10000 rpm for 30 min at 4° C., and the supernatant was used as a sample for IgA measurement. IgA amount of each sample was measured using Rat IgA ELISA Kit (Bethyl Laboratories, Inc.). Statistical analysis was conducted in the same manner as in 1) above.

Caco-2 cells [1] = experiment: Cytotoxicity of food emulsifiers alone (LDH activity); format: cell-based, human
Method: (§4) Caco-2 cells were inoculated to a 96-well plate at 10000 cells/well and cultured for three days to confluency. The Caco-2 cells were washed with PBS and then treated with a food emulsifier SE (250 μg/mL HLB16P, 1000 μg/mL HLB11S or 500 μg/mL […]) or monolaurin (500 μg/mL) and α-CD for an hour, and the LDH activities of each were measured. The treatment amounts of α-CD were 1/10, 1, 1.5, 2, 5 and 10 times the weight ratios for each SE. For monolaurin, the treatment amounts of α-CD were 1/10, 1, 1.5, 2, 5, 10 and 15 times the weight ratios.
For comparison, the LDH activities of Caco-2 cells which were treated with the SE (HLB16P (0-1000 μg/mL), HLB11S or HLB16S (each 0-2000 μg/mL)) or monolaurin (0-2500 μg/mL) alone for an hour were also measured.

[2] = test system: cecal microflora (Lactobacillales); experiment: Analysis of cecal microflora by the T-RFLP method; format: in vivo, SD rats; details: 5.5% in NF diet, 8 weeks; compared to the NF group or the LS group
Method: as §1, with “diets. […]” for “diets.”
(§5) A cut was made in the cecum taken out in 1 above, and the contents were squeezed out. The weights of the cecal contents were measured. […]
(§6) The cecal contents which were thawed for the microflora analysis were mixed and homogenized, and the analysis of the microflora by the T-RFLP method, measurement of the SCFAs amounts and the pH analysis were entrusted (TechnoSuruga Laboratory Co., Ltd.). The total SCFAs amounts were calculated by adding up the amounts of lactic acid, succinic acid, acetic acid, propionic acid and butyric acid.

[3] = Measurement of SCFAs amounts in cecal contents; format: in vivo, SD rats; details: 5.5% in NF diet, 8 weeks
Method: as §1, §2, §3
A cut was made in the cecum taken out in 1 above, and the contents were squeezed out. The weights of the cecal contents were measured. Immediately after the weight measurement, the contents were frozen with liquid nitrogen and stored at −80° C.
as §6

[4] = pH analysis of cecal contents; format: in vivo, SD rats; details: 5.5% in NF diet, 8 weeks
Method: as §1, with “diets. […]” for “diets.”
as §5, §6

mucin = experiment: Mucin measurement in cecal contents (Fecal mucin Assay Kit); format: in vivo, SD rats; details: 5.5% in NF diet, 8 weeks, FIG. 1
Method: as §1
The diets were prepared in such a manner that the α-CD or LS content of dry experimental diet became 5.5%. After mixing each powder well, 100 ml of water was added, and thus mixed material was used as an experimental diet. […]
The mucin amounts of the cecal contents were measured using Fecal mucin Assay Kit (Cosmo Bio Co., Ltd.), statistically analyzed by the Dunnett's test and the Student's t-test using Pharmaco Analyst I (Ver. 13.1.1; Three S Japan) and shown with the average values ±standard errors.

[5] = test system: putrefactive products (indole, p-cresol and phenol); experiment: Putrefactive product measurement in cecal contents; format: in vivo, SD rats; details: 5.5% in NF diet, 8 weeks
Method: as §1, §2, §3
Analysis of the amounts of putrefactive products (indole, p-cresol and phenol) in cecal contents was entrusted (TechnoSuruga Laboratory Co., Ltd.).

Feces amount measurement = format: in vivo, SD rats; details: 5.5% in NF diet, feces of three days from the 45th day
Method: as §1, §2
A drainboard was placed on the floor of each breeding cage 44 days after starting the test, and the feces that fell under the drainboard were collected every day for three days in succession after the 45th day. The weight (wet weight) of the collected feces (for the three days) was measured, and then after drying under reduced pressure, the feces weight after drying (dry weight) was measured.

Caco-2 cells [6] = experiment: Effect on cytotoxicity of food emulsifiers (LDH activity); format: cell-based, human; details: one hour
Method: as §4

Caco-2 cells [7] = experiment: Transepithelial electrical resistance decrease by food emulsifier; format: cell-based, human; details: HLB16P 62.5 μg/mL and α-CD 0-2000 μg/mL, 120 minutes, FIG. 7A
Method: Caco-2 cells were seeded to a Transwell insert at 0.4×10^6 cells/mL using Corning (registered trademark) BioCoat (trademark) intestinal epithelial cells (Caco-2) differentiation environment kit (Corning International K.K.), cultured for one day in a normal medium and cultured for three days in a differentiation medium. The Caco-2 cells were washed with PBS, then treated with HLB16P (62.5 μg/mL) and α-CD (0-2000 μg/mL) and incubated for 120 minutes. During the incubation, the transepithelial electrical resistance values were measured every 20 minutes by Millicell ERS-2 resistance measurement system (Nihon Millipore K.K.).
In the same manner, the transepithelial electrical resistance values were measured after treatment with HLB16P (62.5 μg/mL) and α-CD (2000 μg/mL), each water-soluble dietary fiber or oligosaccharide (2000 μg/mL).

[8] = compared to the LS group (p<0.01, Student's t-test)
[9] = compared to the LS group (p<0.05)
[10] = HLB11S 1000 μg/mL, weight ratio, FIG. 5B
[11] = HLB16P 250 μg/mL, weight ratio, FIG. 5A
[12] = HLB16S 500 μg/mL, weight ratio, FIG. 5C

Structure (SMILES): OC[C@H]1O[C@@H](O[C@H]2[C@H](O)[C@@H](O)[C@@H](O[C@]3(CO)O[C@H](CO)[C@@H](O)[C@@H]3O)O[C@@H]2CO)[C@H](O)[C@@H](O)[C@H]1O [LS, Lactosucrose, reference compound]
- IgA amount of cecal contents (IgA): increased significantly

Structure (SMILES): CCCCCCCCCCCC(=O)OCC(O)CO (stereo not shown) [monolaurin, Monolaurin]
- concentration at which cytotoxicity to the Caco-2 cells was observed (Caco-2 cells [1]): ≥ 156.25 µg/mL
- concentration at which cytotoxicity to the Caco-2 cells was very high (Caco-2 cells [1]): ≥ 625 µg/mL

Structure (SMILES): OC[C@H]1O[C@@H]2O[C@H]3[C@H](O)[C@@H](O)[C@@H](O[C@H]4[C@H](O)[C@@H](O)[C@@H](O[C@H]5[C@H](O)[C@@H](O)[C@@H](O[C@H]6[C@H](O)[C@@H](O)[C@@H](O[C@H]7[C@H](O)[C@@H](O)[C@@H](O[C@H]1[C@H](O)[C@H]2O)O[C@@H]7CO)O[C@@H]6CO)O[C@@H]5CO)O[C@@H]4CO)O[C@@H]3CO [α-CD]
- proportion of the Lactobacillales in cecal microflora [2]: increased
- increase in amount of acetic acid ([3]; compared to the LS group): remarkable
- increase in amount of lactic acid ([3]; compared to the LS group): remarkable
- increase in amount of n-butyric acid ([3]; compared to the LS group): remarkable
- increase in amount of propionic acid ([3]; compared to the LS group): remarkable
- increase in amount of succinic acid ([3]; compared to the LS group): remarkable
- increase in total SCFAs amount ([3]; compared to the LS group): remarkable
- amount of acetic acid in cecal contents ([3]; compared to the NF group): increased significantly
- amount of lactic acid in cecal contents ([3]; compared to the NF group): increased significantly
- amount of n-butyric acid in cecal contents ([3]; compared to the NF group): increased significantly
- amount of propionic acid in cecal contents ([3]; compared to the NF group): increased significantly
- amount of succinic acid in cecal contents ([3]; compared to the NF group): increased significantly
- total SCFAs amount in cecal contents ([3]; compared to the NF group): increased significantly
- decrease in the cecal pH ([4]; compared to the LS group): remarkable
- cecal pH ([4]; compared to the NF group): decreased significantly
- mucin amount of cecal contents (mucin; [8]): increased significantly
- mucin amount of cecal contents (mucin; compared to the NF group (p<0.01)): increased significantly
- IgA amount of cecal contents (IgA): increased significantly
- IgA-increasing effect (IgA; α-CD group vs LS group, Student's t-test): comparable to that of LS
- production of the putrefactive products [5, 8]: suppressed significantly
- amounts of the putrefactive products (indole, p-cresol and phenol) in cecal contents ([5]; compared to the NF group (p<0.01), FIG. 3): decreased significantly
- feces amount, dry weight (Feces amount measurement; [9]): increased significantly
- feces amount, wet weight (Feces amount measurement; [9]): increased significantly
- feces amount, wet weight (Feces amount measurement; compared to the NF group (p<0.01), FIG. 4A): increased significantly
- feces amount, dry weight (Feces amount measurement; compared to the NF group (p<0.01), FIG. 4B): increased significantly
- suppression of the cytotoxicity of the food emulsifier (Caco-2 cells [6]; 1000 μg/mL HLB11S and 1000 μg/mL test substance, LDH activity, FIG. 6): exhibits such an effect
- amount of α-CD with which cytotoxicity of HLB11S disappeared completely (Caco-2 cells [6]; [10]): 10 times the amount
- amount of α-CD with which cytotoxicity of HLB11S was reduced significantly (Caco-2 cells [6]; [10]): ≥ 0.1 times the amount
- amount of α-CD with which cytotoxicity of HLB16P disappeared completely (Caco-2 cells [6]; [11]): 10 times the amount
- amount of α-CD with which cytotoxicity of HLB16P was reduced significantly (Caco-2 cells [6]; [11]): ≥ 1.5 times the amount
- amount of α-CD with which cytotoxicity of HLB16S disappeared completely (Caco-2 cells [6]; [12]): 5 times the amount
- amount of α-CD with which cytotoxicity of HLB16S was reduced significantly (Caco-2 cells [6]; [12]): ≥ 1.5 times the amount
- amount of α-CD with which cytotoxicity of monolaurin disappeared completely (Caco-2 cells [6]; monolaurin 500 μg/mL, weight ratio, FIG. 5D): ≥ 10 times the amount
- suppression of the decrease in transepithelial electrical resistance value by the SE (Caco-2 cells [7]): suppressed by the addition of α-CD in a concentration-dependent manner
